# Test results from ChEMBL document CHEMBL1201862, “PubChem BioAssay data set” (2004).
#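 Grown in 96-well plates, cells were treated for 48 hours with each compound at five concentrations. Insufficient inhibition: endpoint recorded as highest concentration tested. At the GI50, growth is halved.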 Active and inactive are the calls of the source. No stated cut-off is given here; in the data, active = GI50 up to about 1.1 µM and inactive = higher.
# What was measured:
# Experiment in all cases: inhibition of tumour cell growth, NCI panel, 48 h
# [1] = test system: HT-29
# [2] = test system: K562
# [3] = test system: DMS-114
# [4] = test system: M14
# [5] = test system: U-251
# [6] = test system: HCC 2998
# [7] = test system: LOX IMVI
# [8] = test system: HCT-116
# [9] = test system: SNB-75
# [10] = test system: DLD-1
# [11] = test system: Malme-3M
# [12] = test system: SF-539
# [13] = test system: RXF 393
# [14] = test system: NCI-H226
# [15] = test system: NCI-H522
# [16] = test system: XF498
# [17] = test system: UACC-62
# [18] = test system: KM12
# [19] = test system: HOP-62
# [20] = test system: HL-60
# [21] = test system: SNB-19
# [22] = test system: SF-268
# [23] = test system: COLO 205
# [24] = test system: DMS-273
# [25] = test system: EKVX
# [26] = test system: OVCAR-4
# [27] = test system: SW-620
# [28] = test system: OVCAR-5
# [29] = test system: UO-31
# [30] = test system: TK-10
# [31] = test system: A498
# [32] = test system: SNB-78
# [33] = test system: RXF 631
# [34] = test system: LXFL 529
# [35] = test system: RPMI-8226
# [36] = test system: SR
# [37] = test system: NCI-H460
# [38] = test system: IGROV-1
# [39] = test system: SF-295
# [40] = test system: SK-MEL-2
# [41] = test system: KM-20L2
# [42] = test system: SK-OV-3
# [43] = test system: NCI-H23
# [44] = test system: MOLT-4
# [45] = test system: CCRF-CEM
# [46] = test system: SN12C
# [47] = test system: CAKI-1
# [48] = test system: UACC-257
# [49] = test system: SK-MEL-28
# [50] = test system: OVCAR-3
# [51] = test system: HOP-92
# [52] = test system: M19-MEL
# [53] = test system: A549
# [54] = test system: SK-MEL-5
# [55] = test system: ACHN
# [56] = test system: HOP-18
# [57] = test system: HCT-15
# [58] = test system: OVCAR-8
# [59] = test system: 786-0
compound,measurement,setting,value
O=[N+]([O-])c1nc(-c2ccccn2)[nH]c1[N+](=O)[O-],GI50,[1],47.5 µM (inactive)
same,GI50,[2],> 100 µM (inactive)
same,GI50,[3],19 µM (inactive)
same,GI50,[4],80.5 µM (inactive)
same,GI50,[5],55.2 µM (inactive)
same,GI50,[6],96.4 µM (inactive)
same,GI50,[7],68.7 µM (inactive)
same,GI50,[8],22.3 µM (inactive)
same,GI50,[9],64 µM (inactive)
same,GI50,[10],70.5 µM (inactive)
same,GI50,[11],57.4 µM (inactive)
same,GI50,[12],39.6 µM (inactive)
same,GI50,[13],76.7 µM (inactive)
same,GI50,[14],74.1 µM (inactive)
same,GI50,[15],18.6 µM (inactive)
same,GI50,[16],> 100 µM (inactive)
same,GI50,[17],26.3 µM (inactive)
same,GI50,[18],> 100 µM (inactive)
same,GI50,[19],> 100 µM (inactive)
same,GI50,[20],30.1 µM (inactive)
same,GI50,[21],> 100 µM (inactive)
same,GI50,[22],43.6 µM (inactive)
same,GI50,[23],45.5 µM (inactive)
same,GI50,[24],65.8 µM (inactive)
same,GI50,[25],> 100 µM (inactive)
same,GI50,[26],44.2 µM (inactive)
same,GI50,[27],66.2 µM (inactive)
same,GI50,[28],> 100 µM (inactive)
same,GI50,[29],70.3 µM (inactive)
same,GI50,[30],> 100 µM (inactive)
same,GI50,[31],> 100 µM (inactive)
same,GI50,[32],> 100 µM (inactive)
same,GI50,[33],57.8 µM (inactive)
same,GI50,[34],89.1 µM (inactive)
same,GI50,[35],> 100 µM (inactive)
same,GI50,[36],32.2 µM (inactive)
same,GI50,[37],36.6 µM (inactive)
same,GI50,[38],> 100 µM (inactive)
same,GI50,[39],> 100 µM (inactive)
same,GI50,[40],> 100 µM (inactive)
same,GI50,[41],39.6 µM (inactive)
same,GI50,[42],> 100 µM (inactive)
same,GI50,[43],42.4 µM (inactive)
same,GI50,[44],39.2 µM (inactive)
same,GI50,[45],33.3 µM (inactive)
same,GI50,[46],71.6 µM (inactive)
same,GI50,[47],57.7 µM (inactive)
same,GI50,[48],53.2 µM (inactive)
same,GI50,[49],54.7 µM (inactive)
same,GI50,[50],59.2 µM (inactive)
same,GI50,[51],> 100 µM (inactive)
same,GI50,[52],57.7 µM (inactive)
same,GI50,[53],53.8 µM (inactive)
same,GI50,[54],79.3 µM (inactive)
same,GI50,[55],64.3 µM (inactive)
COc1cc2c(oc(=O)c3cc4ccoc4c(OC)c32)c2cccc(O)c12,GI50,[1],> 100 µM (inactive)
same,GI50,[2],> 100 µM (inactive)
same,GI50,[3],> 100 µM (inactive)
same,GI50,[4],> 100 µM (inactive)
same,GI50,[5],> 100 µM (inactive)
same,GI50,[6],> 100 µM (inactive)
same,GI50,[7],> 100 µM (inactive)
same,GI50,[8],> 100 µM (inactive)
same,GI50,[9],60.3 µM (inactive)
same,GI50,[10],> 100 µM (inactive)
same,GI50,[11],> 100 µM (inactive)
same,GI50,[12],> 100 µM (inactive)
same,GI50,[13],> 100 µM (inactive)
same,GI50,[14],> 100 µM (inactive)
same,GI50,[15],> 100 µM (inactive)
same,GI50,[16],> 100 µM (inactive)
same,GI50,[17],> 100 µM (inactive)
same,GI50,[18],> 100 µM (inactive)
same,GI50,[19],> 100 µM (inactive)
same,GI50,[20],> 100 µM (inactive)
same,GI50,[56],> 100 µM (inactive)
same,GI50,[21],> 100 µM (inactive)
same,GI50,[22],> 100 µM (inactive)
same,GI50,[23],> 100 µM (inactive)
same,GI50,[24],> 100 µM (inactive)
same,GI50,[25],> 100 µM (inactive)
same,GI50,[26],> 100 µM (inactive)
same,GI50,[27],> 100 µM (inactive)
same,GI50,[28],> 100 µM (inactive)
same,GI50,[57],> 100 µM
same,GI50,[29],> 100 µM (inactive)
same,GI50,[30],> 100 µM (inactive)
same,GI50,[31],> 100 µM (inactive)
same,GI50,[32],> 100 µM (inactive)
same,GI50,[34],> 100 µM (inactive)
same,GI50,[35],> 100 µM (inactive)
same,GI50,[36],> 100 µM (inactive)
same,GI50,[37],> 100 µM (inactive)
same,GI50,[38],> 100 µM (inactive)
same,GI50,[39],> 100 µM (inactive)
same,GI50,[40],> 100 µM (inactive)
same,GI50,[41],> 100 µM (inactive)
same,GI50,[42],> 100 µM (inactive)
same,GI50,[58],> 100 µM (inactive)
same,GI50,[43],> 100 µM (inactive)
same,GI50,[44],> 100 µM (inactive)
same,GI50,[59],> 100 µM (inactive)
same,GI50,[45],> 100 µM (inactive)
same,GI50,[46],> 100 µM (inactive)
same,GI50,[47],> 100 µM (inactive)
same,GI50,[48],> 100 µM (inactive)
same,GI50,[49],> 100 µM (inactive)
same,GI50,[50],> 100 µM (inactive)
same,GI50,[51],> 100 µM (inactive)
same,GI50,[52],> 100 µM (inactive)
same,GI50,[53],> 100 µM (inactive)
same,GI50,[54],> 100 µM (inactive)
same,GI50,[55],> 100 µM (inactive)
